Reference: PubChem BioAssay (NCI)
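Five concentrations, 48 hours, 96-well plates. TGI: total growth inhibition.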

How the values were obtained:
Test in all cases: NCI anticancer screen, dose series, 48 h
786-0 renal = system: 786-0 renal
A498 renal = system: A498 renal
A549 NSCLC = system: A549 NSCLC
ACHN renal = system: ACHN renal
CAKI-1 renal = system: CAKI-1 renal
CCRF-CEM leukemia = system: CCRF-CEM leukemia
COLO 205 colon = system: COLO 205 colon
DU-145 prostate = system: DU-145 prostate
EKVX NSCLC = system: EKVX NSCLC
HCC-2998 colon = system: HCC-2998 colon
HCT-116 colon = system: HCT-116 colon
HCT-15 colon = system: HCT-15 colon
HL-60(TB) leukemia = system: HL-60(TB) leukemia
HOP-62 NSCLC = system: HOP-62 NSCLC
HS 578T breast = system: HS 578T breast
HT29 colon = system: HT29 colon
IGROV1 ovarian = system: IGROV1 ovarian
K-562 leukemia = system: K-562 leukemia
KM12 colon = system: KM12 colon
LOX IMVI melanoma = system: LOX IMVI melanoma
M14 melanoma = system: M14 melanoma
MALME-3M melanoma = system: MALME-3M melanoma
MDA-MB-231 breast = system: MDA-MB-231 breast
MDA-MB-435 = system: MDA-MB-435
MDA-N = system: MDA-N
NCI-H226 lung = system: NCI-H226 lung
NCI-H23 lung = system: NCI-H23 lung
NCI-H460 lung = system: NCI-H460 lung
NCI-H522 lung = system: NCI-H522 lung
NCI/ADR-RES ovarian = system: NCI/ADR-RES ovarian
OVCAR-3 ovarian = system: OVCAR-3 ovarian
OVCAR-4 ovarian = system: OVCAR-4 ovarian
OVCAR-5 ovarian = system: OVCAR-5 ovarian
OVCAR-8 ovarian = system: OVCAR-8 ovarian
PC-3 prostate = system: PC-3 prostate
RPMI-8226 leukemia = system: RPMI-8226 leukemia
RXF 393 renal = system: RXF 393 renal
SF-268 CNS = system: SF-268 CNS
SF-295 CNS = system: SF-295 CNS
SF-539 CNS = system: SF-539 CNS
SK-MEL-2 melanoma = system: SK-MEL-2 melanoma
SK-MEL-28 melanoma = system: SK-MEL-28 melanoma
SK-MEL-5 melanoma = system: SK-MEL-5 melanoma
SK-OV-3 ovarian = system: SK-OV-3 ovarian
SN12C renal = system: SN12C renal
SNB-19 CNS = system: SNB-19 CNS
SNB-75 CNS = system: SNB-75 CNS
SR leukemia = system: SR leukemia
SW-620 colon = system: SW-620 colon
T-47D breast = system: T-47D breast
TK-10 renal = system: TK-10 renal
U251 CNS = system: U251 CNS
UACC-257 melanoma = system: UACC-257 melanoma
UACC-62 melanoma = system: UACC-62 melanoma

Measured: TGI

N#CC(=N)c1ncn(CCO)c1NC(=O)C(F)(F)F
> 100 µM: 786-0 renal | A498 renal | A549 NSCLC | ACHN renal | CAKI-1 renal | CCRF-CEM leukemia | COLO 205 colon | DU-145 prostate | EKVX NSCLC | HCC-2998 colon | HCT-116 colon | HCT-15 colon | HL-60(TB) leukemia | HOP-62 NSCLC | HS 578T breast | HT29 colon | IGROV1 ovarian | K-562 leukemia | KM12 colon | LOX IMVI melanoma | M14 melanoma | MALME-3M melanoma | MDA-MB-231 breast | MDA-MB-435 | MDA-N | NCI-H226 lung | NCI-H23 lung | NCI-H460 lung | NCI-H522 lung | NCI/ADR-RES ovarian | OVCAR-3 ovarian | OVCAR-4 ovarian | OVCAR-5 ovarian | OVCAR-8 ovarian | PC-3 prostate | RPMI-8226 leukemia | RXF 393 renal | SF-268 CNS | SF-295 CNS | SF-539 CNS | SK-MEL-2 melanoma | SK-MEL-28 melanoma | SK-MEL-5 melanoma | SK-OV-3 ovarian | SN12C renal | SNB-19 CNS | SNB-75 CNS | SR leukemia | SW-620 colon | T-47D breast | TK-10 renal | U251 CNS | UACC-257 melanoma | UACC-62 melanoma
